According to patent US20230027026A1, “FUSED PYRIMIDINE COMPOUNDS, COMPOSITIONS AND MEDICINAL APPLICATIONS THEREOF” (JUBILANT BIOSYS LIMITED, priority 2019, published 2023):
Like-named read-outs stand apart in the source and are kept apart here.

What was measured:
Assay type in all cases: cell-based
[1] = test system: A431 cells; test: Cellular proliferation (Alamar Blue) assay, A431; settings: Homo sapiens
Experimental: (§1) Example 3: Cellular Proliferation (Alamar Blue) Assays
(§2) • 1. EGFR(D770_N771insSVD) expressing Ba/F3 stable cell line • 2. EGFR (A767_dupASV) expressing Ba/F3 stable cell line • 3. A431 cells • 4. BTER2 (A775_G776insYVMA) expressing Ba/F3 stable cell line • 5. BTER2 (WT) expressing Ba/F3 stable cell line • 6. BT-474 cells
(§3) • 1. Seed cells at 5000 for A431 and 15,000 cells for Ba/F3 in 100 μL/well in complete media (for A431: DMEM with 10% FBS and for Ba/F3 cells: RPMI with 10% FBS) in 96-well tissue culture plate. Leave outer wells without cells for background measurements. Incubate at 37 degree Celsius in 5% CO2 humidified incubator for 16-18 hours. • 2. Add 0.025 ml of 5× concentration compound dilution or DMSO control. Final compound concentration range is 10-0.0005 μM prepared in 3-fold serial dilutions. Incubate for 72 hr at 37 degree Celsius in […] humidified incubator. • 3. Add 0.0125 mL Alamar Blue™ reagent to each well with multi-channel pipette and tap gently on each side of the plate to mix. Incubate for 3 hours at 37 degree Celsius in […] humidified incubator. • 4. Read plates on fluorescence reader (Tecan Spark Control, Device: Spark, Serial #: 1801006040) at 540 nm excitation, 590 nm emission wavelength. • 5. Data analysis was performed using XLfit 5.5.0.5.

[2] = biological target: EGFR (A767_dupASV) expressing Ba/F3 stable cell line (Homo sapiens, UniProt P00533, DUP767-769, cells depend on it); test: Cellular proliferation (Alamar Blue) assay, EGFR A767_dupASV Ba/F3; settings: EGFR A767_dupASV Ba/F3, 72 hr, read-out: A767 IC50
Experimental: as §1, §2, §3

[3] = biological target: EGFR(D770_N771insSVD) expressing Ba/F3 stable cell line (Homo sapiens, UniProt P00533, DUP768-770, cells depend on it); test: Cellular proliferation (Alamar Blue) assay, EGFR D770_N771insSVD Ba/F3; settings: EGFR D770_N771insSVD Ba/F3, 72 hr, read-out: D770 IC50
Experimental: as §1, §2, §3

[4] = A-431, 72 h, read-out: A431 IC50 (nM)
[5] = A-431, A431 cells, 72 hr, Alamar Blue, read-out: A431 IC50

Sequence of EGFR (A767_dupASV) expressing Ba/F3 stable cell line (P00533 with tags, fused parts or gaps DUP767-769): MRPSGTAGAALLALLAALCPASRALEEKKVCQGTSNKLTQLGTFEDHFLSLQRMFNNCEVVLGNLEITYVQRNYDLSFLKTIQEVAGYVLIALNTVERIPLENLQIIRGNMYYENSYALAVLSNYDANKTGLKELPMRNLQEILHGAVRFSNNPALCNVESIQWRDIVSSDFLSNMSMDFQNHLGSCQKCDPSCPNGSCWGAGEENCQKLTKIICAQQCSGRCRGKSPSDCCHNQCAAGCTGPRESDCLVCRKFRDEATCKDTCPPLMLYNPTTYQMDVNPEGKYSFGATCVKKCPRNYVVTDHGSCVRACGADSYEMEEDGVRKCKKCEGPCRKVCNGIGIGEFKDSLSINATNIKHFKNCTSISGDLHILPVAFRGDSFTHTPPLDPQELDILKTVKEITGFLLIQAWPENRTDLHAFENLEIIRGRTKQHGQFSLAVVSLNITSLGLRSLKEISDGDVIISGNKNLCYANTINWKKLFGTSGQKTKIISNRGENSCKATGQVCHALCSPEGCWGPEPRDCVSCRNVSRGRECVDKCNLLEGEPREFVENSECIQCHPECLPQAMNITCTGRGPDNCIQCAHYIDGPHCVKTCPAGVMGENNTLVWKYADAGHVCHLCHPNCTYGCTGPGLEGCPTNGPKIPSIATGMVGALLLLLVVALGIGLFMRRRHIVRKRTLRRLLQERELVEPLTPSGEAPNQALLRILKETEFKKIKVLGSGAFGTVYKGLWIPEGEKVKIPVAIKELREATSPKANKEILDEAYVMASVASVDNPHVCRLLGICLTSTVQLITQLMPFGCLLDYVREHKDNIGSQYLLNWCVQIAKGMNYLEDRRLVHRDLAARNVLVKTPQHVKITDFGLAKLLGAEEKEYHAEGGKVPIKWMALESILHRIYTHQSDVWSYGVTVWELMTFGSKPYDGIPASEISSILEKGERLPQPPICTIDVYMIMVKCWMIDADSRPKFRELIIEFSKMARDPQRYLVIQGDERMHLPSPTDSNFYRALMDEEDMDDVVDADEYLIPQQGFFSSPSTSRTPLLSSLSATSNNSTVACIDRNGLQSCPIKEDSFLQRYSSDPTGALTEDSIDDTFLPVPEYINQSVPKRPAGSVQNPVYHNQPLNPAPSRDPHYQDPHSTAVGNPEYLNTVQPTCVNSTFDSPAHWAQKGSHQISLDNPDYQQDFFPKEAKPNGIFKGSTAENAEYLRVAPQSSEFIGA
Sequence of EGFR(D770_N771insSVD) expressing Ba/F3 stable cell line (P00533 with tags, fused parts or gaps DUP768-770): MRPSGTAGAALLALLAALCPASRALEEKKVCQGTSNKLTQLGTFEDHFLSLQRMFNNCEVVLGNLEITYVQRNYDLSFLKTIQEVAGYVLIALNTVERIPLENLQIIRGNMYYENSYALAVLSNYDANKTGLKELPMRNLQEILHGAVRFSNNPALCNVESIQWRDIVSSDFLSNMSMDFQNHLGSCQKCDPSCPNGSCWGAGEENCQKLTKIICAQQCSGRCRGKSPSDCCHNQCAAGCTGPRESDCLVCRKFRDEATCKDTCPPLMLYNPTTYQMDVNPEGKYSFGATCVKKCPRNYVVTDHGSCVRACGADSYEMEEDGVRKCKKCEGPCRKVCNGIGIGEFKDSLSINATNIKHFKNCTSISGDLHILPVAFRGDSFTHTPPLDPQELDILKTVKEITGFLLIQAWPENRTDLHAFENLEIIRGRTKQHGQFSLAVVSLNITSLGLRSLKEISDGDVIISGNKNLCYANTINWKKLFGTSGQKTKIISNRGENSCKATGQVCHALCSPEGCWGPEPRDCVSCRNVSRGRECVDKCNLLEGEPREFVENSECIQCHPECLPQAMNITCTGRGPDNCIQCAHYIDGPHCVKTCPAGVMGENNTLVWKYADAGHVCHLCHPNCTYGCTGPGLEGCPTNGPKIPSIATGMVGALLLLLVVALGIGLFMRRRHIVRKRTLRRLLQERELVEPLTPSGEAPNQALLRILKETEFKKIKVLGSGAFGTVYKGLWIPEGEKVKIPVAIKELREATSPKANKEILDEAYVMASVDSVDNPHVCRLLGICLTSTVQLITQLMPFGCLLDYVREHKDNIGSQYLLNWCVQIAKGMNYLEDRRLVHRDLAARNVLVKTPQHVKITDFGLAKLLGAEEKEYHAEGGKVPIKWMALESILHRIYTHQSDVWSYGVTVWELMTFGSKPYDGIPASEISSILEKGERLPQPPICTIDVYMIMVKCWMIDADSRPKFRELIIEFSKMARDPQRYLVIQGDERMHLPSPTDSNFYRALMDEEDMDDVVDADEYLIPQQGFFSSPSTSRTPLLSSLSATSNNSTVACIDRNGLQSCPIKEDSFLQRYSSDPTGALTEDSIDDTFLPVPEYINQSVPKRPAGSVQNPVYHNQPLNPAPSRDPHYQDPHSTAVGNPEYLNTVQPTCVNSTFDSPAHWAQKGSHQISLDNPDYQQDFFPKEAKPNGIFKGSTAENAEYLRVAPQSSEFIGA

C[C@H](c1ccccc1)N1Cc2cnc(Nc3cnn(C)c3)nc2N(c2cccc(NC(=O)/C=C/CN(C)C)c2)C1=O (single isomer, unassigned) [Compound 133]
IC50 [1, 4]: ≥ 10000 nM
GI50 [2]: 1.12 µM
GI50 [3]: 2.69 µM

C[C@@H](c1ccccc1)N1Cc2cnc(Nc3cnn(C)c3)nc2N(c2cccc(NC(=O)/C=C/CN(C)C)c2)C1=O (single isomer, unassigned) [Compound 134]
IC50 [1, 4]: ≥ 10000 nM
GI50 [2]: 0.109 µM
GI50 [3]: 0.103 µM

CN(C)C/C=C/C(=O)Nc1cccc(N2C(=O)N(Cc3ccccc3)Cc3cnc(Nc4ccn(C)n4)nc32)c1 [Compound 52, (E)-N-(3-(3-benzyl-7-((1-methyl-1H-pyrazol-3-yl)amino)-2-oxo-3,4-dihydropyrimido[4,5-d]pyrimidin-1(2H)-yl)phenyl)-4-(dimethylamino)but-2-enamide]
IC50 [1, 5]: ≥ 10000 nM
GI50 [2]: 0.244 µM
GI50 [3]: 0.341 µM

CN(C)C/C=C/C(=O)Nc1cccc(N2C(=O)N(Cc3ccccc3)Cc3cnc(Nc4cnc5c(cnn5C)c4)nc32)c1 [Compound 53, (E)-N-(3-(3-benzyl-7-((1-methyl-1H-pyrazolo[3,4-b]pyridin-5-yl)amino)-2-oxo-3,4-dihydropyrimido[4,5-d]pyrimidin-1(2H)-yl)phenyl)-4-(dimethylamino)but-2-enamide]
IC50 [1, 5]: ≥ 10000 nM
GI50 [2]: 0.474 µM
GI50 [3]: 1.05 µM

CN(C)C/C=C/C(=O)Nc1cccc(N2C(=O)N(Cc3ccccc3)Cc3cnc(Nc4ccc(N5CCOCC5)nc4)nc32)c1 [Compound 54, (E)-N-(3-(3-benzyl-7-((6-morpholinopyridin-3-yl)amino)-2-oxo-3,4-dihydropyrimido[4,5-d]pyrimidin-1(2H)-yl)phenyl)-4-(dimethylamino)but-2-enamide]
IC50 [1, 5]: ≥ 10000 nM
GI50 [2]: 0.224 µM
GI50 [3]: 0.337 µM

CN(C)C/C=C/C(=O)Nc1cccc(N2C(=O)N(Cc3ccccc3)Cc3cnc(Nc4cnc(N5CCOCC5)nc4)nc32)c1 [Compound 55, (E)-N-(3-(3-benzyl-7-((2-morpholinopyrimidin-5-yl)amino)-2-oxo-3,4-dihydropyrimido[4,5-d]pyrimidin-1(2H)-yl)phenyl)-4-(dimethylamino)but-2-enamide]
IC50 [1, 5]: ≥ 10000 nM
GI50 [2]: 1.67 µM
GI50 [3]: 3.86 µM

COc1nn(C)cc1Nc1ncc2c(n1)N(c1cccc(NC(=O)/C=C/CN(C)C)c1)C(=O)N(Cc1ccccc1)C2 [Compound 56, (E)-N-(3-(3-benzyl-7-((3-methoxy-1-methyl-1H-pyrazol-4-yl)amino)-2-oxo-3,4-dihydropyrimido[4,5-d]pyrimidin-1(2H)-yl)phenyl)-4-(dimethylamino)but-2-enamide]
IC50 [1, 5]: ≥ 10000 nM
GI50 [2]: 0.065 µM
GI50 [3]: 0.107 µM

CN(C)C/C=C/C(=O)Nc1cccc(N2C(=O)N(Cc3ccc(F)cc3)Cc3cnc(Nc4cn(C)nc4Cl)nc32)c1 [Compound 57, (E)-N-(3-(7-((3-chloro-1-methyl-1H-pyrazol-4-yl)amino)-3-(4-fluorobenzyl)-2-oxo-3,4-dihydropyrimido[4,5-d]pyrimidin-1(2H)-yl)phenyl)-4-(dimethylamino)but-2-enamide]
IC50 [1, 5]: ≥ 10000 nM
GI50 [2]: 0.115 µM
GI50 [3]: 0.476 µM

CN(C)C/C=C/C(=O)Nc1cccc(N2C(=O)N(Cc3ccccc3)Cc3cnc(Nc4cnoc4)nc32)c1 [Compound 58, (E)-N-(3-(3-benzyl-7-(isoxazol-4-ylamino)-2-oxo-3,4-dihydropyrimido[4,5-d]pyrimidin-1(2H)-yl)phenyl)-4-(dimethylamino)but-2-enamide]
IC50 [1, 5]: ≥ 10000 nM
GI50 [2]: 0.801 µM
GI50 [3]: 2.11 µM

CN(C)C/C=C/C(=O)Nc1cccc(N2C(=O)N(Cc3ccccc3)Cc3cnc(Nc4cnc(N5CCN(C)CC5)nc4)nc32)c1 [Compound 59, (E)-N-(3-(3-benzyl-7-((2-(4-methylpiperazin-1-yl)pyrimidin-5-yl)amino)-2-oxo-3,4-dihydropyrimido[4,5-d]pyrimidin-1(2H)-yl)phenyl)-4-(dimethylamino)but-2-enamide]
IC50 [1, 5]: ≥ 10000 nM
GI50 [2]: 8.66 µM
GI50 [3]: ≥ 10 µM
